Measured values from ChEMBL document CHEMBL5356935, “Discovery of rigid biphenyl Plasmodium falciparum DHFR inhibitors using a fragment linking strategy” (RSC Med Chem, 2023).
The source made the active and inactive calls. No cut-off for these calls is given here.

How the values were obtained:
Plasmodium falciparum [1] = assay: Antiplasmodial activity against PYR-resistant Plasmodium falciparum V1/S encoding QM DHFR infected in human erythrocytes assessed as inhibition of parasite growth by [3H]-hypoxanthine incorporation assay; assay type: functional, organism-based; details: Erythrocyte
[2] = Inhibition of Plasmodium falciparum DHFR N51I/C59R/S108N/I164L quadruple mutant using DHF as substrate assessed as inhibition constant in presence of NADPH by UV-Vis spectrometry analysis
Plasmodium falciparum [3] = assay: Antiplasmodial activity against PYR-sensitive Plasmodium falciparum TM4/8.2 encoding WT DHFR infected in human erythrocytes assessed as inhibition of parasite growth by [3H]-hypoxanthine incorporation assay; assay type: functional, organism-based; details: TM4/8.2, Erythrocyte
Dihydrofolate reductase = target: T1, Dihydrofolate reductase (Homo sapiens, UniProt P00374); assay: Inhibition of human DHFR using DHF as substrate assessed as inhibition constant in presence of NADPH by UV-Vis spectrometry analysis
T1 sequence (P00374 whole entry): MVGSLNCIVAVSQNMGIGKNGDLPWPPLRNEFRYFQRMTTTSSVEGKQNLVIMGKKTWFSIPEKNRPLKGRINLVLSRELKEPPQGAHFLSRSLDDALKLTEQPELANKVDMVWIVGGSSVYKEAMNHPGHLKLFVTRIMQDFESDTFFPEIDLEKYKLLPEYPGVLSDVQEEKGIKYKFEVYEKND

[4] = Distribution coefficient, log D of compound in n-octanol and saturated PBS at pH 7.4 at 100 uM incubated for 2 hrs under shaking condition by HPLC analysis; assay type: physicochemical
[5] = Cytotoxicity against African green monkey Vero cells assessed as cell growth inhibition incubated for 72 hrs by sulforhodamine B assay; assay type: toxicity, cell-based, Chlorocebus sabaeus
[6] = target: Bifunctional dihydrofolate reductase-thymidylate synthase (Plasmodium falciparum K1, UniProt P13922); assay: Inhibition of wild type Plasmodium falciparum DHFR using DHF as substrate assessed as inhibition constant in presence of NADPH by UV-Vis spectrometry analysis
Bifunctional dihydrofolate reductase-thymidylate synthase, sequence (P13922 whole entry): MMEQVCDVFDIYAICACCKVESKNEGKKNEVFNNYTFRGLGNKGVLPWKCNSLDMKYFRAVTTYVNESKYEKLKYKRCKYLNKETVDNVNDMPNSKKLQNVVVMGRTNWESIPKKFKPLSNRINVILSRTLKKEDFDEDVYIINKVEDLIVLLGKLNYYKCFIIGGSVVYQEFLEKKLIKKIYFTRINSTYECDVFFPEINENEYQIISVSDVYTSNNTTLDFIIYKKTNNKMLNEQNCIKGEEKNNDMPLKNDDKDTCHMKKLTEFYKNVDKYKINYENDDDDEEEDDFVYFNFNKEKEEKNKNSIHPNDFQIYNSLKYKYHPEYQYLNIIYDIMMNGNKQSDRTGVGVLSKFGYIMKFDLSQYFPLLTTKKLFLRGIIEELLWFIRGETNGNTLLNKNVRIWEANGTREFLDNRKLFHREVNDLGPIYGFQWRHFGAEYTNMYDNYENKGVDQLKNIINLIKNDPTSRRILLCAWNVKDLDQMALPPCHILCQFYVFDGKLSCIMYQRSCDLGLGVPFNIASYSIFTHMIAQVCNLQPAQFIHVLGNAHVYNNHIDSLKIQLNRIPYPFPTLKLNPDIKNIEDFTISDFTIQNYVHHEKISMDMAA

Plasmodium falciparum [7] = assay: Inhibition of Plasmodium falciparum DHFR N51I/C59R/S108N/I164L quadruple mutant using DHF as substrate at 500 uM in presence of NADPH by UV-Vis spectrometry analysis
[8] = target: Bifunctional dihydrofolate reductase-thymidylate synthase (Plasmodium falciparum K1) (UniProt P13922); assay: Binding affinity to Plasmodium falciparum DHFR assessed as binding constant (kon) by surface plasmon resonance analysis
Bifunctional dihydrofolate reductase-thymidylate synthase (Plasmodium falciparum K1), sequence (P13922 whole entry, looked up): as the sequence (P13922 whole entry) above

[9] = target: Bifunctional dihydrofolate reductase-thymidylate synthase (Plasmodium falciparum K1) (UniProt P13922); assay: Inhibition of wild type Plasmodium falciparum DHFR using DHF as substrate at 500 uM in presence of NADPH by UV-Vis spectrometry analysis relative to control
[10] = target: T2, Dihydrofolate reductase (Homo sapiens) (UniProt P00374); assay: Inhibition of human DHFR at 500 uM by UV-Vis spectrometry analysis
T2 sequence (whole entry): T1 sequence (P00374 whole entry)

[11] = target: Bifunctional dihydrofolate reductase-thymidylate synthase (Plasmodium falciparum K1) (UniProt P13922); assay: Binding affinity to Plasmodium falciparum DHFR assessed as binding constant (koff) by surface plasmon resonance analysis
[12] = Metabolic stability in rat liver microsomes assessed as intrinsic clearance measured upto 60 mins in presence of NADPH by LC-MS/MS analysis; assay type: ADME, Microsome; details: read-out: CLH
[13] = Kinetic solubility of the compound at pH 7.4 at 200 uM incubated for 2 hrs under shaking condition by HPLC analysis; assay type: physicochemical; details: buffer, read-out: Kinetic_solubility
[14] = Kinetic solubility of the compound at pH 4.5 at 200 uM incubated for 2 hrs under shaking condition by HPLC analysis; assay type: physicochemical; details: buffer, read-out: Kinetic_solubility
[15] = Metabolic stability in human liver microsomes assessed as intrinsic clearance measured upto 60 mins in presence of NADPH by LC-MS/MS analysis; assay type: ADME, Microsome; details: read-out: CLH
[16] = Kinetic solubility of the compound at pH 6.5 at 200 uM incubated for 2 hrs under shaking condition by HPLC analysis; assay type: physicochemical; details: buffer, read-out: Kinetic_solubility
[17] = Kinetic solubility of the compound at pH 2.0 at 200 uM incubated for 2 hrs under shaking condition by HPLC analysis; assay type: physicochemical; details: buffer, read-out: Kinetic_solubility
Plasmodium falciparum [18] = assay: Inhibition of Plasmodium falciparum DHFR N51I/C59R/S108N/I164L quadruple mutant using DHF as substrate at 500 uM in presence of NADPH by UV-Vis spectrometry analysis relative to control
[19] = target: Bifunctional dihydrofolate reductase-thymidylate synthase (Plasmodium falciparum K1) (UniProt P13922); assay: Inhibition of wild type Plasmodium falciparum DHFR using DHF as substrate at 500 uM in presence of NADPH by UV-Vis spectrometry analysis
[20] = target: Bifunctional dihydrofolate reductase-thymidylate synthase (Plasmodium falciparum K1) (UniProt P13922); assay: Binding affinity to Plasmodium falciparum DHFR assessed as faster binding and release kinetics by surface plasmon resonance analysis
Plasmodium falciparum [21] = assay: Inhibition of Plasmodium falciparum DHFR N51I/C59R/S108N/I164L quadruple mutant assessed as fold change in inhibition in presence of 2,4-diamino-6-ethylpyrimidin-5-ol

## CCc1nc(N)nc(N)c1Cc1cccc(-c2ccc(C(=O)OC)cc2)c1
Plasmodium falciparum [1]
  IC50: > 50000 nM
[2]
  Ki: 1.04 nM
Plasmodium falciparum [3]
  IC50: 34100 nM
Dihydrofolate reductase
  Ki: 16.6 nM
[4]
  logD at 2 h, 100 µM: 3.24
[5]
  IC50 at 72 h: > 50000 nM
[6]
  Ki: 0.25 nM

## COc1cccc(-c2ccc(C(=O)O)o2)c1
Plasmodium falciparum [7]
  inhibition: inactive
[8]
  K: 9.51 M⁻¹ s⁻¹
[9]
  inhibition: 12.7%
[10]
  inhibition: inactive
[11]
  K: 0.014 s⁻¹

## CCc1nc(N)nc(N)c1Cc1ccc(-c2cccc(C(=O)O)c2)cc1.Cl
[12]
  microsomal CLint: < 3 µL/min/mg
Plasmodium falciparum [1]
  IC50: 29700 nM
[2]
  Ki: 1.96 nM
[13]
  solubility kinetic at 2 h, 200 µM: 29.9 µM
Plasmodium falciparum [3]
  IC50: 770 nM
[14]
  solubility kinetic at 2 h, 200 µM: 11.4 µM
Dihydrofolate reductase
  Ki: 147 nM
[5]
  IC50 at 72 h: > 50000 nM
[6]
  Ki: 0.29 nM
[15]
  microsomal CLint: 4.92 µL/min/mg
[16]
  solubility kinetic at 2 h, 200 µM: 15.7 µM
[17]
  solubility kinetic at 2 h, 200 µM: 192 µM

## O=C(O)c1cccc(-c2cccnc2)c1
Plasmodium falciparum [18]
  inhibition: 3.89%
[8]
  K: 16.3 M⁻¹ s⁻¹
[19]
  inhibition: inactive
[10]
  inhibition: inactive
[11]
  K: 0.002 s⁻¹

## O=C(O)c1ccccc1-c1ccncc1
Plasmodium falciparum [7]
  inhibition: inactive
[19]
  inhibition: inactive
[20]
  Activity: Active
[10]
  inhibition: inactive

## CCc1nc(N)nc(N)c1Cc1cccc(-c2ccc(C(=O)O)cc2)c1.Cl.Cl
Plasmodium falciparum [1]
  IC50: > 50000 nM
[2]
  Ki: 3.3 nM
[13]
  solubility kinetic at 2 h, 200 µM: 30.8 µM
Plasmodium falciparum [3]
  IC50: 8550 nM
[14]
  solubility kinetic at 2 h, 200 µM: 19.2 µM
Dihydrofolate reductase
  Ki: 22 nM
[5]
  IC50 at 72 h: > 50000 nM
[6]
  Ki: 0.48 nM
[16]
  solubility kinetic at 2 h, 200 µM: 19.2 µM
[17]
  solubility kinetic at 2 h, 200 µM: 188 µM

## CCc1nc(N)nc(N)c1Cc1ccc(-c2ccc(C(=O)O)cc2)cc1.Cl
[12]
  microsomal CLint: < 3 µL/min/mg
Plasmodium falciparum [1]
  IC50: > 50000 nM
[2]
  Ki: 61.1 nM
[13]
  solubility kinetic at 2 h, 200 µM: 11.7 µM
Plasmodium falciparum [3]
  IC50: 11200 nM
[14]
  solubility kinetic at 2 h, 200 µM: 8.8 µM
Dihydrofolate reductase
  Ki: 214 nM
[4]
  logD at 2 h, 100 µM: 0.332
[5]
  IC50 at 72 h: > 50000 nM
[6]
  Ki: 1.59 nM
[15]
  microsomal CLint: < 3 µL/min/mg
[16]
  solubility kinetic at 2 h, 200 µM: 11.4 µM
[17]
  solubility kinetic at 2 h, 200 µM: 176 µM

## COc1ccccc1-c1ccc(C(=O)O)cc1
Plasmodium falciparum [21]
  fold change (FC): 2.7
Plasmodium falciparum [18]
  inhibition: 24%
[9]
  inhibition: 14.6%
[20]
  Activity: Active
[10]
  inhibition: inactive

## O=C(O)c1ccc(-c2cnco2)cc1
Plasmodium falciparum [21]
  fold change (FC): 2.6
Plasmodium falciparum [18]
  inhibition: 11.3%
[8]
  K: 5.26 M⁻¹ s⁻¹
[19]
  inhibition: inactive
[10]
  inhibition: inactive
[11]
  K: 0.013 s⁻¹

## O=C(O)c1ccc(-c2ccc(O)cc2)cc1
Plasmodium falciparum [18]
  inhibition: 24.9%
[8]
  K: 14.8 M⁻¹ s⁻¹
[9]
  inhibition: 21.1%
[10]
  inhibition: inactive
[11]
  K: 0.011 s⁻¹

## CCc1nc(N)nc(N)c1Cc1cccc(-c2cccc(C(=O)O)c2)c1
Plasmodium falciparum [1]
  IC50: 35000 nM
[2]
  Ki: 0.81 nM
Plasmodium falciparum [3]
  IC50: 4140 nM
Dihydrofolate reductase
  Ki: 108 nM
[5]
  IC50 at 72 h: > 50000 nM
[6]
  Ki: 0.23 nM

## CCc1nc(N)nc(N)c1Cc1ccc(-c2cccc(C(=O)OC)c2)cc1.Cl
[12]
  microsomal CLint: 100 µL/min/mg
Plasmodium falciparum [1]
  IC50: 34500 nM
[2]
  Ki: 2.11 nM
[13]
  solubility kinetic at 2 h, 200 µM: 8.1 µM
Plasmodium falciparum [3]
  IC50: 720 nM
[14]
  solubility kinetic at 2 h, 200 µM: 183 µM
Dihydrofolate reductase
  Ki: 140 nM
[4]
  logD at 2 h, 100 µM: 3.37
[5]
  IC50 at 72 h: 19300 nM
[6]
  Ki: 0.29 nM
[15]
  microsomal CLint: 625 µL/min/mg
[16]
  solubility kinetic at 2 h, 200 µM: 8.8 µM
[17]
  solubility kinetic at 2 h, 200 µM: 186 µM

## O=C(O)c1ccccc1-c1ccco1
Plasmodium falciparum [18]
  inhibition: 7.7%
[8]
  K: 40 M⁻¹ s⁻¹
[9]
  inhibition: 6.5%
[10]
  inhibition: inactive
[11]
  K: 0.012 s⁻¹

## O=C(O)c1ccc(-c2cccnc2)cc1
Plasmodium falciparum [18]
  inhibition: 2.4%
[8]
  K: 4.18 M⁻¹ s⁻¹
[9]
  inhibition: 8.5%
[10]
  inhibition: inactive
[11]
  K: 0.001 s⁻¹

## O=C(O)c1ccnc(-c2ccccc2)c1
Plasmodium falciparum [7]
  inhibition: inactive
[8]
  K: 3.55 M⁻¹ s⁻¹
[19]
  inhibition: inactive
[10]
  inhibition: inactive
[11]
  K: 0.01 s⁻¹

## O=C(O)c1ccc(-c2ccncc2)cc1
Plasmodium falciparum [18]
  inhibition: 10.1%
[8]
  K: 16.4 M⁻¹ s⁻¹
[9]
  inhibition: 2.93%
[10]
  inhibition: inactive
[11]
  K: 0.001 s⁻¹

## CCc1nc(N)nc(N)c1Cc1cccc(-c2cccc(C(=O)OC)c2)c1
Plasmodium falciparum [1]
  IC50: 40000 nM
[2]
  Ki: 0.58 nM
Plasmodium falciparum [3]
  IC50: 4950 nM
Dihydrofolate reductase
  Ki: 19.4 nM
[4]
  logD at 2 h, 100 µM: 3.2
[5]
  IC50 at 72 h: 21700 nM
[6]
  Ki: 0.21 nM

## O=C(O)c1cccnc1-c1ccccc1
Plasmodium falciparum [7]
  inhibition: inactive
[19]
  inhibition: inactive
[20]
  Activity: Active
[10]
  inhibition: inactive

## O=C(O)c1cccc(-c2ccccc2)n1
Plasmodium falciparum [7]
  inhibition: inactive
[8]
  K: 9.99 M⁻¹ s⁻¹
[19]
  inhibition: inactive
[10]
  inhibition: inactive
[11]
  K: 0.013 s⁻¹

## O=C(O)c1ccc(-n2cccc2)cc1
Plasmodium falciparum [18]
  inhibition: 19.4%
[8]
  K: 14.6 M⁻¹ s⁻¹
[9]
  inhibition: 8%
[10]
  inhibition: inactive
[11]
  K: 0.008 s⁻¹

## Cc1oc(-c2ccccc2)cc1C(=O)O
Plasmodium falciparum [7]
  inhibition: inactive
[8]
  K: 6.06 M⁻¹ s⁻¹
[19]
  inhibition: inactive
[10]
  inhibition: inactive
[11]
  K: 0.014 s⁻¹

## COc1cc(Cc2cnc(N)nc2N)cc(OC)c1OC [TRIMETHOPRIM]
[2]
  Ki: 49.1 nM

## CCc1nc(N)nc(N)c1Cc1ccc(-c2ccc(C(=O)OC)cc2)cc1.Cl
[12]
  microsomal CLint: 764 µL/min/mg
Plasmodium falciparum [1]
  IC50: > 25000 nM
[2]
  Ki: 41.7 nM
[13]
  solubility kinetic at 2 h, 200 µM: < 4 µM
Plasmodium falciparum [3]
  IC50: 8150 nM
[14]
  solubility kinetic at 2 h, 200 µM: 132 µM
Dihydrofolate reductase
  Ki: 423 nM
[4]
  logD at 2 h, 100 µM: 3.49
[5]
  IC50 at 72 h: > 25000 nM
[6]
  Ki: 1.06 nM
[15]
  microsomal CLint: 459 µL/min/mg
[16]
  solubility kinetic at 2 h, 200 µM: < 4 µM
[17]
  solubility kinetic at 2 h, 200 µM: 154 µM
